Assay results as given in patent US20060094744A1, “Pharmaceutical dosage forms of stable amorphous rapamycin like compounds” (priority 2004, published 2006).

Assay: Differential scanning calorimetry of amorphous sirolimus (glass transition temperature)
Format: physicochemical
Conditions: DSC, TA-Instruments Q1000 MTDSC, approximately 3 mg, heating rate 2° C./min; higher Tg is said to mean a more stable amorphous material
Procedure: In another test, the amorphous sirolimus is analyzed utilizing differential scanning calorimetry. Essentially, the purpose of this test is to determine the glass transition temperature of the amorphous sirolimus. In this test, approximately 3 mg of amorphous sirolimus is transferred into a standard aluminum TA-Instrument sample pan and covered. The DSC curve is recorded on a TA-Instruments Q1000 MTDSC equipped with a RCS cooling unit. FIG. 2 illustrates a differential scanning calorimetry curve of amorphous sirolimus.

Structure (SMILES): CO[C@H]1C[C@@H]2CC[C@@H](C)[C@@](O)(O2)C(=O)C(=O)N2CCCC[C@H]2C(=O)O[C@H]([C@H](C)C[C@@H]2CC[C@@H](O)[C@H](OC)C2)CC(=O)[C@H](C)/C=C(\C)[C@@H](O)[C@@H](OC)C(=O)[C@H](C)C[C@H](C)/C=C/C=C/C=C/1C [amorphous sirolimus, (3S,6R,7E,9R,10R,12R,14S,15E,17E,19E,21 S,23S, 26R,27R,34aS)-9, 10, 12, 13, 14,21,22,23,24,25,26,27,32,33,34, 34a-hexadecahydro-9,27-dihydroxy-3-[(1R)-2-[(1S,3R,4R)-4-hydroxy-3-methoxycyclohexyl]-1-methylethyl]-10,21-dimethoxy-6,8,12,14,20,26-hexamethyl-23,27-epoxy-3H-pyrido[2,1-c][1,4] oxaazacyclohentriacontine-1,5,11,28,29(4H,6H,31H)-pentone]
- glass transition temperature: about 93 °C
